Laboratory results taken from ChEMBL document CHEMBL1201862, “PubChem BioAssay data set” (2004).
Active and inactive are the calls of the source.

What was measured:
Prothrombin = Prothrombin (Bos taurus, UniProt P00735); test: thrombin inhibition, dose response, biochemical, fluorescence polarization, uHTS hits (AID 602369); assay type: functional
[1] = molecular target: 26S proteasome non-ATPase regulatory subunit 14 (Homo sapiens, UniProt O00487); test: inhibition of proteasome subunit RPN11 – biochemical, fluorescence polarization, uHTS hits, confirmation (AID 602368); assay type: functional
Sequence of 26S proteasome non-ATPase regulatory subunit 14 (O00487 whole entry): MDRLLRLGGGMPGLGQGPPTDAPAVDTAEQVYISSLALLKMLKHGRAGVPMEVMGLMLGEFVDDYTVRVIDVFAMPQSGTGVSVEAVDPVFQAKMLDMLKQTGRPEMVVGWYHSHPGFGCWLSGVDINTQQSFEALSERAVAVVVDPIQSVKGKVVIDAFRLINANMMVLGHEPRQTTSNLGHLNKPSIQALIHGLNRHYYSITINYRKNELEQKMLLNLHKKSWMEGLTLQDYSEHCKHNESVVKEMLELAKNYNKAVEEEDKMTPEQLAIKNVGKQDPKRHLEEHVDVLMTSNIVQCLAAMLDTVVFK

[2] = molecular target: 72 kDa type IV collagenase (Homo sapiens, UniProt P08253); test: Dose Response validation of uHTS RPN11 inhibitor hits using a MMP-2 Fluorescence assay.; assay type: functional
Sequence of 72 kDa type IV collagenase (P08253 whole entry): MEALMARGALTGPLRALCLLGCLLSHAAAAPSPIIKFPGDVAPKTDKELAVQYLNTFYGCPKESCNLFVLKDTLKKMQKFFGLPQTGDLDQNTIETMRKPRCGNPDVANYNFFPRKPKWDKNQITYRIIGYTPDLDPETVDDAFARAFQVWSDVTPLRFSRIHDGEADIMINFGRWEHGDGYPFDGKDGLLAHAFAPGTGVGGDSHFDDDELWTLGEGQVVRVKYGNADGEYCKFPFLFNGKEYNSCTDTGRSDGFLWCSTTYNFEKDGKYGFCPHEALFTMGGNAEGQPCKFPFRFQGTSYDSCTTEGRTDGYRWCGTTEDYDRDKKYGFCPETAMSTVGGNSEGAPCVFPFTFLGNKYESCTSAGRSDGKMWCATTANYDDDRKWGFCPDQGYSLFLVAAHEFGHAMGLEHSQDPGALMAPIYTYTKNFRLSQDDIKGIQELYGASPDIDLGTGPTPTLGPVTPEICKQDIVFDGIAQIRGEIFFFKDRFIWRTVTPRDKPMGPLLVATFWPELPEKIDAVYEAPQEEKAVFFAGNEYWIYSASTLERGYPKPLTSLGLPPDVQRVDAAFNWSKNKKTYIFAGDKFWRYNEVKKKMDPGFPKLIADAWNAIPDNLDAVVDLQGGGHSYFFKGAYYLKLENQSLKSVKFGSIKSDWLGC

[3] = molecular target: Glucose-6-phosphate 1-dehydrogenase (Homo sapiens, UniProt P11413); test: human G6PD enzyme inhibitors, dose response, selectivity assay for P. falciparum G6PD inhibitor project, biochemical, fluorescence (AID 504792); assay type: functional
Sequence of Glucose-6-phosphate 1-dehydrogenase (P11413 whole entry): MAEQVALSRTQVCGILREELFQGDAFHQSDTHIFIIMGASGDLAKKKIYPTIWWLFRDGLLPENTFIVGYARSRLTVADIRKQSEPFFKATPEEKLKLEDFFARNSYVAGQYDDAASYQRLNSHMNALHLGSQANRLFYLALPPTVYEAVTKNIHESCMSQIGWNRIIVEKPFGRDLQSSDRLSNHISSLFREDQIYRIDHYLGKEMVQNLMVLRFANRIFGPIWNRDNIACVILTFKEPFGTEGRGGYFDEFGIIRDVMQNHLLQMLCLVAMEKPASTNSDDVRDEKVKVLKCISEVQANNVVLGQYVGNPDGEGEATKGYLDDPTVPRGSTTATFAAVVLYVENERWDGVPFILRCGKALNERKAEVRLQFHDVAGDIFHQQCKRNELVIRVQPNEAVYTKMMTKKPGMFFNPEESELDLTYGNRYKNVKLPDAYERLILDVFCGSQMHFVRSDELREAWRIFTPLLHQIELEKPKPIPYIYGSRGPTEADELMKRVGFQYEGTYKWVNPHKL

Aminopeptidase N = molecular target: T1, Aminopeptidase N (Plasmodium falciparum FcB1/Columbia, UniProt O96935); test: P. falciparum M1AAP inhibitors, biochemical, fluorogenic H-Leu-NHMec substrate, 1536-well (AID 1445); parameters: species or system Plasmodium falciparum 3D7, 3D7
T1 sequence (O96935 whole entry): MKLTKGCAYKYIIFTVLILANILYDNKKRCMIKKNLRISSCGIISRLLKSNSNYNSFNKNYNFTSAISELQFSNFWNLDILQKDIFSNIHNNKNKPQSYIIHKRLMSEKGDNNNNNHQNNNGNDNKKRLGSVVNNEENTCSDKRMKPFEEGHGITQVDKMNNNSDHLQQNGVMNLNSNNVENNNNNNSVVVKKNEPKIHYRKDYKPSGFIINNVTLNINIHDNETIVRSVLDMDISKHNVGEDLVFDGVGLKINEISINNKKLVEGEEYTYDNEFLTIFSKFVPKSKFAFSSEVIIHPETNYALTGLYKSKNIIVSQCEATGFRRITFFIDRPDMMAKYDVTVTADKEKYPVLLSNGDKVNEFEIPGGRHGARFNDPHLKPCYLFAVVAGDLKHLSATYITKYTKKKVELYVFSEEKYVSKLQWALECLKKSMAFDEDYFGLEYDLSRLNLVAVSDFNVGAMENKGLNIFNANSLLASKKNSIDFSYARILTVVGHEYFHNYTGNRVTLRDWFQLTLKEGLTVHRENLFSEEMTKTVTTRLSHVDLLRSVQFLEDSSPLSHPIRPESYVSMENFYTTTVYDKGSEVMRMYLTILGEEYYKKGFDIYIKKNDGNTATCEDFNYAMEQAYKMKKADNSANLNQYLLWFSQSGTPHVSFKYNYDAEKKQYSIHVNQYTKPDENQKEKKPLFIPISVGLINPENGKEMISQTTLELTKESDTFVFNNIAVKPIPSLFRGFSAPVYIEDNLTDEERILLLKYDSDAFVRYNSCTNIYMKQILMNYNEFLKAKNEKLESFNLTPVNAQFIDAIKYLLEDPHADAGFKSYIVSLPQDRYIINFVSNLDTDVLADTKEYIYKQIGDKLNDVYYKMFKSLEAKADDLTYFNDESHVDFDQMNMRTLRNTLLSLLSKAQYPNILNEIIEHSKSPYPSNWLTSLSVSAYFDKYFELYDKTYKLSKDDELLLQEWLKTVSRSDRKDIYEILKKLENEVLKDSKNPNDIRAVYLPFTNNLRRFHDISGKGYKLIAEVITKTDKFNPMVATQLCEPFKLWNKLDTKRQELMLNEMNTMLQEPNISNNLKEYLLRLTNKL

HEK293 = test: inhibitors of LMP1-driven NF-kB reporter, dose response, cell-based, HEK293, luciferase, cherry-pick (AID 588343); assay type: functional; settings: Homo sapiens
[4] = molecular target: T2, Sentrin-specific protease 7 (Homo sapiens, UniProt Q9BQF6); assay type: functional;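 also: Luminescence-based dose-response confirmation of ultra-high-throughput screening hits, measuring inhibition of SENP7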
T2 sequence (Q9BQF6 whole entry): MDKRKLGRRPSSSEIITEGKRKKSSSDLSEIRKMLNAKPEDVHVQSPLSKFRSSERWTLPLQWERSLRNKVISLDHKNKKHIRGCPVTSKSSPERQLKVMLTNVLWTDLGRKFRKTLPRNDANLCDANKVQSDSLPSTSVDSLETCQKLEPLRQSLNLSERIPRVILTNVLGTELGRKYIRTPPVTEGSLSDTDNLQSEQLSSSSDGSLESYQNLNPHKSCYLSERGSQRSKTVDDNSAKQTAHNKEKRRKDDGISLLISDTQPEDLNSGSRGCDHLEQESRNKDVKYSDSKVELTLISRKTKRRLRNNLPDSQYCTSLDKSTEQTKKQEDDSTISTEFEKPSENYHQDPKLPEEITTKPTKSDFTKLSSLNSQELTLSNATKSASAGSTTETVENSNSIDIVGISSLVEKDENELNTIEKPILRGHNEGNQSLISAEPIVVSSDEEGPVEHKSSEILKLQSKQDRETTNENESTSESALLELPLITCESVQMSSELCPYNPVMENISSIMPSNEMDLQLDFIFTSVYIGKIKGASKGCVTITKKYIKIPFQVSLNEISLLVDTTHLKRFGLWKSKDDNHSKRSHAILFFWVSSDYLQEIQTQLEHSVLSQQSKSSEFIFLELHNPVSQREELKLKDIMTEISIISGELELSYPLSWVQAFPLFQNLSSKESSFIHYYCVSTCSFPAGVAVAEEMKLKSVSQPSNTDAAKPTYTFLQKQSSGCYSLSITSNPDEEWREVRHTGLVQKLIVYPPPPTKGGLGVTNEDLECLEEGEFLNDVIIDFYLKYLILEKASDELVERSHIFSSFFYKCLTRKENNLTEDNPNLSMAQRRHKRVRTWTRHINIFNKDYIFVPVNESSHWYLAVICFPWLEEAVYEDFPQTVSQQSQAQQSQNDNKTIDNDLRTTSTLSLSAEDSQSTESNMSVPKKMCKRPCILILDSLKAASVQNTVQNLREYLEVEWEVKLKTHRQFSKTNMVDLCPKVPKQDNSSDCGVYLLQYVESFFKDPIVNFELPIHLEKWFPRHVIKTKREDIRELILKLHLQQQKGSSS

[5] = molecular target: T3, Sentrin-specific protease 8 (Homo sapiens, UniProt Q96LD8); assay type: functional;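 also: luminescence read-out of SENP8 inhibition, dose-response confirmation following an ultra-high-throughput screen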
T3 sequence (Q96LD8 whole entry): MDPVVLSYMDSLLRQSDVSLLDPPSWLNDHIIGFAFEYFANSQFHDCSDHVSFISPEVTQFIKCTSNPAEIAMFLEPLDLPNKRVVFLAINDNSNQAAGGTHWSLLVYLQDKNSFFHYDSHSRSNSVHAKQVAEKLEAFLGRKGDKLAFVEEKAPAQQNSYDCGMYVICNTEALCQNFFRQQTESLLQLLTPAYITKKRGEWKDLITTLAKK

[6] = molecular target: T4, Sentrin-specific protease 6 (Homo sapiens, UniProt Q9GZR1); assay type: functional;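 also: Luminescence-based dose-response confirmatory assay of SENP6 inhibition, following up an ultra-high-throughput screen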
T4 sequence (Q9GZR1 whole entry): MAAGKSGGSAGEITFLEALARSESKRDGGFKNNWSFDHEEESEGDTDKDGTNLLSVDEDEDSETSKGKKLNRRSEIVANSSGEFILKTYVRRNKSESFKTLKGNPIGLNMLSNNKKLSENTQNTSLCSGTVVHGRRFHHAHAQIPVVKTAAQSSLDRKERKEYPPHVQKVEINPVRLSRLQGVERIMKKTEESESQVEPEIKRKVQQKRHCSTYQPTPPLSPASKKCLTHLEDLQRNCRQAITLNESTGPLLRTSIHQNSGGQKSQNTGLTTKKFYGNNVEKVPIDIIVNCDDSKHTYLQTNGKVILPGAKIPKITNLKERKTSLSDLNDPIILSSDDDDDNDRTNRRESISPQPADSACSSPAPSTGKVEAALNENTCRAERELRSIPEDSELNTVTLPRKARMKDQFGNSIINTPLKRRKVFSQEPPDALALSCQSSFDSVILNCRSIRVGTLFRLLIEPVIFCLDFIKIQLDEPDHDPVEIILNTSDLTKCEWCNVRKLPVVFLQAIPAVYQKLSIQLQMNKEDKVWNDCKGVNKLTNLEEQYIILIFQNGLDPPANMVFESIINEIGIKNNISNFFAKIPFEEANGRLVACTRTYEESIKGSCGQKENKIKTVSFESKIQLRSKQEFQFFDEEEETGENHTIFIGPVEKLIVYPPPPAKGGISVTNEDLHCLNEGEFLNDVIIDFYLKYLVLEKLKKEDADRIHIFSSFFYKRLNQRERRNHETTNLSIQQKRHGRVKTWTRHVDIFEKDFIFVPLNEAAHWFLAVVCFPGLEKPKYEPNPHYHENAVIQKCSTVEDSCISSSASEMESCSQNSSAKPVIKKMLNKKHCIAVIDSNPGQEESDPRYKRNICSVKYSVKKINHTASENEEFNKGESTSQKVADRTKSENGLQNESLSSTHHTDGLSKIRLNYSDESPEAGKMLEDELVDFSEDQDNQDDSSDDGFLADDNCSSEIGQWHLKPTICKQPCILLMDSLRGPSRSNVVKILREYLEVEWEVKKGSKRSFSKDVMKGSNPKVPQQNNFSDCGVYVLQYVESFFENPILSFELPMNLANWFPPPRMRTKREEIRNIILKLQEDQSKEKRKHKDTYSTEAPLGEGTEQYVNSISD

Nonstructural protein 1 = Nonstructural protein 1 (Influenza A virus, UniProt Q194T2); assay type: functional, Influenza A virus (A/California/07/2009(H1N1))
Sequence of Nonstructural protein 1 (Q194T2 whole entry): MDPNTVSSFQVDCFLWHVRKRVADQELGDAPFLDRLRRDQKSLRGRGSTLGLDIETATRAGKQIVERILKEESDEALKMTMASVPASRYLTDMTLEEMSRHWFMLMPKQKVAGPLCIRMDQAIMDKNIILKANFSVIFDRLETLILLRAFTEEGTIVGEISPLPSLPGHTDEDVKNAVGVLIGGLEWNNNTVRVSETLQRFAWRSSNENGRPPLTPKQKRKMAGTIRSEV

Vero [7] = test: cells; assay type: functional, Chlorocebus sabaeus; settings: Chlorocebus sabaeus, Vero
[8] = molecular target: Heat shock protein HSP 90-alpha (Homo sapiens, UniProt P07900); assay type: functional, organism-based
Vero [9] = test: cells; assay type: functional, cell-based, Chlorocebus sabaeus; settings: Chlorocebus sabaeus, Vero
[10] = molecular target: T5, Carboxy-terminal domain RNA polymerase II polypeptide A small phosphatase 1 (Homo sapiens, UniProt Q9GZU7); test: inhibitors of CTDSP1, concentration-response testing, biochemical assay, absorbance-based, actives from ultra-high-throughput screening (AID 540297); assay type: functional
T5 sequence (Q9GZU7 whole entry): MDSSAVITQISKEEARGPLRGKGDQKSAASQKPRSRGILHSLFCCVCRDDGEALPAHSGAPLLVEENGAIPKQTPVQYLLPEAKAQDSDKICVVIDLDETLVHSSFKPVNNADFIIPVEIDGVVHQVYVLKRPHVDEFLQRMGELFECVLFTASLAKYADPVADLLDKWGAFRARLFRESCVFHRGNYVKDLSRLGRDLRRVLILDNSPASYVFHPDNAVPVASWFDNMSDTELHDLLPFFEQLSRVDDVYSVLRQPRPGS

[11] = cytotoxicity toward NIH3T3 fibroblasts, dose response, counter-screen, cell-based, ATP luminescence, mouse fibroblasts (AID 2010); assay type: functional;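 also: cells exposed to compound for about 90 hours before reading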
[12] = inhibitors of intracellular T. cruzi replication, confirmation, NIH3T3 host cells, beta-gal luminescence (AID 2044); assay type: functional, cell-based;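 also: intracellular parasites grown in NIH/3T3 mouse fibroblasts as host cells; luminescent beta-galactosidase reporter signal from transgenic T. cruzi replicating inside host cells; inhibitors lower the luminescence signal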
[13] = Shn3 3'UTR reporter inhibitors, dose response, cell-based, Clone20 osteoblasts, firefly luciferase, cherry-picked (AID 624132); assay type: functional;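 also: firefly luciferase luminescence from reporter carrying the Shn3 3'UTR in osteoblasts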
[14] = inhibitors of SNCA 5'UTR-driven reporter translation, confirmation, H4 neuroglioma cells, luminescence (AID 1988); assay type: functional, cell-based
cells [15] = assay type: functional, cell-based
[16] = control 3'UTR Renilla luciferase suppression, dose response, counter-screen for Shn3 inhibitor project, cell-based, Clone20-Shn3RL, cherry-picked (AID 624133); assay type: functional
[17] = HepG2 cell cytotoxicity, dose response, cytotoxicity control for Shn3 inhibitor project, CellTiter-Glo, cherry-picked (AID 624134); assay type: functional, cell-based
Vero [18] = test: Vero cell cytotoxicity, cytotoxicity control for flavivirus capping enzyme inhibitors (AID 588742); assay type: functional; settings: Chlorocebus sabaeus
[19] = Luminescence Cell-Based Dose Response HTS to Identify Inhibitors of 5'UTR Stem-Loop Driven Prion Protein mRNA Translation in H4 Neuroglioblastoma Cells. [Related pubchem assays: 1827 (Project Summary), 1813 (Primary HTS)]; assay type: functional
cells [20] = assay type: functional, cell-based; remark: listed apart in the source
[21] = inhibitors of firefly luciferase expression or activity, dose response, H4 neuroglioma cells, luminescence (AID 1990); assay type: functional, cell-based

O=C(N/N=C/c1ccc(Cl)cc1Cl)c1ccc2[nH]cnc2c1
IC50 (Prothrombin): 51.7 µM (active)
IC50 [1]: 20.9 µM (active)
IC50 [2]: > 100 µM (inactive)

COc1ccc(OC)c(N2C(=O)/C(=C/Nc3c(C)n(C)n(-c4ccccc4)c3=O)C(=O)NC2=S)c1
IC50 (Prothrombin): 51.9 µM (active)
IC50 [1]: 34.7 µM (active)
IC50 [2]: 38.7 µM (active)

CCn1c([N+](=O)[O-])nc2c1c(=O)[nH]c(=O)n2C
IC50 [3]: > 80 µM (inactive)

COc1cccc(CNc2ccc3[nH]c(O)nc3c2)c1OCc1ccc(F)cc1
IC50 [3]: > 80 µM (inactive)

CCCN1C(=O)/C(=C/c2c(N3CCNC(=O)C3CC(=O)OC)nc3c(C)cccn3c2=O)SC1=S (stereo not drawn)
IC50 (Aminopeptidase N): 68.1 µM (active)

COc1ccccc1NC(=O)CSc1nc(N)c(C#N)cc1C#N
IC50 (Prothrombin): 55.8 µM (active)
IC50 [1]: 36.2 µM (active)
IC50 [2]: > 100 µM (inactive)

COc1ccc(C=C2OC(O)=C(C(C)=O)C2=O)cc1
AC50 (HEK293): 6.16 µM (active)

CC(=O)Nc1nc(COc2ccc3ccccc3c2)cs1
IC50 [4]: 5.88 µM (active)
IC50 [5]: 9.93 µM (active)
IC50 [6]: 8.61 µM (active)

COc1ccc(CCn2c(NN=C3CCCC3)nc3c2c(=O)[nH]c(=O)n3C)cc1
IC50 [3]: > 80 µM (inactive)

O=C(O)c1cccc(NC(S)=NC(NC(=O)c2ccccc2[N+](=O)[O-])C(Cl)(Cl)Cl)c1 (stereo not drawn)
IC50 (Aminopeptidase N): 58.6 µM (active)

CCOc1ccc(NC(=O)c2ccc(N3CC4CC(C3)c3cccc(=O)n3C4)c(NC(=O)c3cccnc3)c2)cc1 (stereo not drawn)
AC50 (HEK293): > 350 µM (inactive)

CC(=NNc1nc2ccccc2o1)c1ncccn1
IC50 (Nonstructural protein 1): 0.739 µM (active)
AC50 (HEK293): 1.23 µM (active)
CC50 (Vero [7]): 1.34 µM (active)
AC50 [8]: 1.97 µM (active)
IC50 (Vero [9]): > 25 µM (active)

CC1=NN(c2nc(-c3ccc(C)cc3)cs2)C(=O)C1N=Nc1ccccc1O (stereo not drawn)
IC50 [10]: 3.69 µM (active)
EC50 [11]: > 60 µM (not active)
IC50 (Aminopeptidase N): 3.37 µM (active)
EC50 [12]: 1.63 µM (active)

COc1cc(/C=C(/C#N)c2nc3ccccc3[nH]2)ccc1OCc1ccc(C(=O)O)o1
IC50 (Aminopeptidase N): 52.1 µM (active)

COc1ccc(C(NC(=O)c2cccnc2)c2cc(Cl)c3cccnc3c2O)cc1OC (stereo not drawn)
AC50 [13]: 1.88 µM (active)
EC50 [14]: > 120 µM (not active)
EC50 (cells [15]): 14.2 µM (active)
AC50 [16]: 1.14 µM (active)
AC50 [17]: 2.7 µM (active)
CC50 (Vero [18]): 3.92 µM (active)
EC50 [19]: 0.297 µM (active)
EC50 (cells [20]): > 350 µM (not active)
EC50 [21]: 13.3 µM (active)
